Data published in patent US10869478B2, “Uses of 2-(2,4-dichlorophenyl)methyl-4,4-dimethyl-3-isoxazolidone as foliar herbicide” (Bayer CropScience Aktiengesellschaft, priority 2015, dated 2020).
One block for each compound: values may come before it.

Key:
Format in all cases: in vivo
Papaver rhoeas = assay: Post-emergence field trial, herbicidal effect; settings: Table 8; post emergence application GS18, field trial; 50 g a.i./ha
Description: (§1) The experiments were conducted as post applied field trials with plot sizes of 11.25-15 qm, an application volume of 250-300 liter water per hectare and two to three repetitions. Seeds of different crops and various monocot and dicot weeds were either sown or the monocot and dicot weeds were grown naturally and established under common field conditions. The evaluation 13-46 days after application was assessed visually. Treated plants were compared to untreated plants (0-100% scale). In the tables below, GS (growth stage) corresponds to BBCH-code (see for reference Lancashire, P. D.; H. Bleiholder; P. Langeluddecke; R. Stauss; T van den Boom; E. Weber; A. Witzen-Berger (1991). “A uniform decimal code for growth stages of crops and weeds”: Ann. Appl. Biol. 119 (3): 561-601; or Witzenberger, A.; H. Hack; T van den Boom (1989): “Erläuterungen zum BBCH-Dezimal-Code für die Entwicklungsstadien des Getreides—mit Abbildungen”. Gesunde pflanzen 41: 384-388; or Zadoks, J. C., Chang, T T & Konzak, C. F. (1974): A decimal code for the growth stages of cereals. Weed Research 14, 415421)
(§2) The generated values from applications alone and in combination were used to evaluate the combinatorial effects according to S. R. Colby, Weeds 15, pages 20 to 22 (1967).
(§3) The abbreviations have the following meaning: • a.i.=active ingredient • E=Observed combination effect value • EC=Calculated combination effect value according to Colby (EC=A+B−A×B/100) • Diff:=Difference (%) between observed and expected combination effect value (%) (observed minus expected value)

Galium aparine = assay: Post-emergence field trial, herbicidal effect; settings: post emergence application GS23, field trial
Description: as §1, §2, §3

Centaurea cyanus = assay: Post-emergence field trial, herbicidal effect; settings: post emergence application GS18, field trial
Description: as §1, §2, §3

Triticum aestivum = settings: 200 g a.i./ha
Description: as §1, §2, §3

Hordeum vulgare = settings: Table 2; post emergence application GS29, field trial; 200 g a.i./ha; visual, 0-100% scale vs untreated
Description: as §1, §2, §3

Efficacy/selectivity [%] against Triticum aestivum (Triticum aestivum; Table 1, post emergence application GS30, field trial, visual, 0-100% scale vs untreated): 30%
Efficacy/selectivty [%] against Triticum aestivum (Triticum aestivum; Table 3, post emergence application GS29, field trial): 18%
Efficacy/selectivity [%] against Hordeum vulgare (Hordeum vulgare): 32%
SMILES: CC1(C)CON(Cc2ccc(Cl)cc2Cl)C1=O [COMPOUND I, 2-(2,4-dichlorophenyl)methyl-4,4-dimethyl-3-isoxazolidone]
Efficacy [%] against Papaver rhoeas (Papaver rhoeas): 0%
Efficacy [%] against Galium aparine (Galium aparine; Table 4, 100 g a.i./ha): 25%
Efficacy [%] against Galium aparine (Galium aparine; Table 7, 100 g a.i./ha): 0%
Efficacy [%] against Centaurea cyanus (Centaurea cyanus; Table 5, 50 g a.i./ha): 25%
Efficacy [%] against Centaurea cyanus (Centaurea cyanus; Table 6, 50 g a.i./ha): 25%
Efficacy [%] against Centaurea cyanus (Centaurea cyanus; Table 9, 100 g a.i./ha): 75%

SMILES: Nc1c([N+](=O)[O-])ccc(Oc2ccccc2)c1Cl [aclonifen, reference compound]
Efficacy [%] against Centaurea cyanus (Centaurea cyanus; Table 9, 450 g a.i./ha): 0%

SMILES: CCCCCCCC(=O)Oc1c(Br)cc(C#N)cc1Br [bromoxynil AS octanoate, reference compound]
Efficacy [%] against Galium aparine (Galium aparine; Table 7, 175 g a.i./ha): 10%

SMILES: O=C(Nc1ccc(F)cc1F)c1cccnc1Oc1cccc(C(F)(F)F)c1 [diflufenican, reference compound]
Efficacy [%] against Centaurea cyanus (Centaurea cyanus; Table 6, 75 g a.i./ha): 0%

SMILES: Nc1c(Cl)c(F)nc(OCC(=O)O)c1Cl [fluroxypyr, reference compound]
Efficacy [%] against Centaurea cyanus (Centaurea cyanus; Table 5, 150 g a.i./ha): 30%

SMILES: CSc1nnc(C(C)(C)C)c(=O)n1N [metribuzin, reference compound]
Efficacy [%] against Papaver rhoeas (Papaver rhoeas): 0%
